Results published in US20100048731A1, “Hydroxylated Long-Chain Resveratrol Derivatives Useful as Neurotrophic Agents” (Centre National de la Recherche Scientifique(CNRS), priority 2006, published 2010).
Read-outs that look alike come from different tables or passages of the source.

Assays:
[1] = system: microglial cell cultures treated with LPS; experiment: Nitrite release (Griess method) in LPS-activated microglial cell cultures; format: cell-based; conditions: LPS 0.01 μg/ml; for decrease in nitrite production compared to the control values: three independent experiments, concentration not stated (5×10^-6, 10^-6 and 10^-7 M tested)
Excerpt: (§1) The experiments carried out thus relate to the capacity of RFA molecules (MRFA and DMRFA) to inhibit, in activated microglia, the release of nitrites and TNF-α.
The activity of NO-synthase type II (NOS II) represents a microglial activity parameter often analyzed in the literature. This enzyme is responsible for the synthesis of nitric oxide radicals under conditions of inflammatory activation. Microglia at rest only express levels at the immunoblotting detection limit. Activation of 24 to 48 hours leads to a strong increase in this expression. The product of this enzyme, NO, quickly breaks down in culture to form nitrites.
(§2) In the experiments performed, NO2^− concentrations were measured after 24 hours and 48 hours of activation in microglial cell cultures treated with 0.01 μg/ml of LPS, in the presence of products RFA-12, MRFA-10, MRFA-12, MRFA-14, MRFA-16, MRFA-18, DMRFA-10, DMRFA-12, DMRFA-14, DMRFA-16, DMRFA-18, M-resveratrol, DM-resveratrol and resveratrol at concentrations of 5×10^−6 M, 10^−6 M and 10^−7 M.

[2] = system: microglial cell cultures treated with LPS; experiment: TNF-α release (ELISA) in LPS-activated microglial cell cultures; format: cell-based; conditions: read-out: decrease in TNF-α production compared to control values
Experimental: as §1
The expression of TNF-α represents a microglial activation parameter often analyzed in the literature. […] A 24-hour activation by LPS leads to a strong increase in expression, detectable by ELISA.
as §2, with “TNF-α” for “NO2^−”, “24” for “24 hours and 48”, “LPS” for “LPS,”, “of” for “of products RFA-12,”

[3] = system: neural stem cells; experiment: Differentiation of neural stem cells (neurospheres) into neurons, by immunocytochemistry; format: cell-based, mouse; conditions: for increase in the neuron population compared to the control fixed at 100%: 3 days of differentiation
Experimental: (§3) Neurospheres are obtained from mouse embryo telencephalon cells cultivated in a defined medium containing 20 ng/ml EGF. After dissociation, the spheres proliferate for 3 days in the presence of EGF (20 ng/ml) during the so-called proliferation phase.
The spheres are then collected and deposited on an poly-ornithine support in a defined medium in the presence of 2 ng/ml EGF. Under these conditions, the spheres adhere to the support and differentiate. The compounds to be tested, RFA-12 and its analogues, dissolved beforehand in ethanol, are added immediately after the deposit of the neurospheres at various concentrations ranging from 10^−5 M to 10^−9 M. The control cultures are treated with a negative control (ethanol) and a positive control (retinoic acid).
To screen our compounds we performed a double labeling, namely for neurons and for astrocytes.
For the detection of astrocytes, a secondary antibody coupled to a fluorochrome derived from rhodamine, Alexa488 (green), was used.
In order to be able to quantify the results, the nuclei are marked by an intercalating agent, TO-PRO (blue). The cultures are then observed under a confocal microscope.

[4] = system: neural stem cells; experiment: Neural stem cell proliferation; format: cell-based, mouse; conditions: 10^-6 M; cultured for 5 days
Experimental: as §3
1. RFA-12 induces the differentiation of neural stem cells into neurons. […] However, if the neurospheres are treated with RFA-12 at a concentration of 10^−6 M to 10^−8 M, an increase in the number of neurons compared to the control (untreated cells) is observed. At concentrations of 10^−6 M, 10^−7 M and 10^−8 M we can observe a 120%, 90% and 80% increase, respectively, in the neuron population compared to the control fixed at 100%. […] In order to see whether RFA and its analogues also act on neural stem cell proliferation, these cells are dissociated and then cultured in the presence of RFA (10^−6 M and 10^−8 M) for 5 days, and then the number of living cells and their size and morphology are recorded.

[5] = ABTS test (antioxidant capacity, hydroxyl radicals from the Fenton reaction); format: physicochemical; conditions: after 2 hours of incubation
Excerpt: In light of the results obtained with the DPPH test, the use of the ABTS ([2,2′-azino-bis-(3-ethylbenzthiazoline-6-sulfonic acid)]) test was considered, [11], [12]. The ABTS test is more sensitive insofar as it uses less encumbered hydroxyl radicals.
The ABTS molecule reacts with the hydroxyl (OH) radicals generated in the medium by the Fenton reaction to form a cation radical, ABTS^+ (green color), which is absorbent at 405 nm. Thus, when it is placed in the presence of an antioxidant molecule, one capable of reducing hydroxyl radicals, a reduction in absorbance at 405 nm can be observed.
On a 96-well ELISA plate, add: • 180 μl of a 50/50 water/ethanol mixture; • 30 μl of a 1 mM aqueous ABTS solution; • 30 μl of a 1 mM aqueous FeSO4 solution; • 30 μl of the product to be tested at the following concentrations: 10 mM, 5 mM, 2.5 mM, 1 mM, 0.5 mM, 0.1 mM, 0.01 mM and 0.001 mM; • 30 μl of a 100 mM aqueous H2O2 solution.
After incubating for 45 minutes, 1 hour and 2 hours, the result is given by measuring optical density at 405 nm using a spectrophotometer.
In order to maximally reduce solubility problems, RFA-10 was tested. Resveratrol was again used as a positive control.

[6] = DPPH test (antioxidant capacity); format: physicochemical; conditions: after 3 hours of incubation (time stated for the hybrid molecules); read-out: IC50 (concentration at which 50% of the radicals are reduced), DPPH test
Experimental: The DPPH [(2,2′-di(4-tert-octylphenyl)1-picrylhydrazyl] test was used to determine the antioxidant capacity of our compounds [9]. DPPH is a stabilized radical that absorbs at 517 nm (violet color). When it is placed in the presence of an antioxidant molecule, the latter will react with the radical. Thus, a decrease in absorbance can be observed. Antioxidant capacity thus results in a decrease in absorbance at 517 nm.
a) Implementation of the DPPH Test
On a 96-well ELISA plate, add: • 100 μl of the various solutions at the following concentrations: 10 mM, 5 mM, 2.5 mM, 1 mM, 0.5 mM, 0.1 mM, 0.01 mM and 0.001 mM; • 100 μl of a 400 μM solution of DPPH in ethanol.
After incubating for 45 minutes, 2 hours and 3 hours, the result is given by measuring optical density at […] using a spectrophotometer.
The result is expressed as IC50, which is the concentration at which 50% of the radicals are reduced by the antioxidant molecule.
The inventors tested resveratrol, as a positive control, as well as RFA-10, RFA-12 and RFA-16.

[7] = LPS 0.01 μg/ml, 24 hours of activation, compound at 5×10^-6 M

Row | SMILES | decrease in nitrite production compared to the control values [1] | inhibition at 5 µM [2, 7] | further results
1 | COc1ccc(/C=C/c2cc(OC)c(CCCCCCCCCCO)c(OC)c2)cc1OC [DMRFA-10] | 20% | 40% | 
2 | COc1ccc(/C=C/c2cc(OC)c(CCCCCCCCCCCCO)c(OC)c2)cc1OC [DMRFA-12] |  | 40% | 
3 | COc1ccc(/C=C/c2cc(OC)cc(OC)c2)cc1 [M-resveratrol, reference compound] |  |  | inhibition at 5 µM ([2]; 24 h): 20%
4 | COc1ccc(/C=C/c2cc(OC)c(CCCCCCCCCCO)c(OC)c2)cc1 [MRFA-10] | 20% | 20 to 40% | 
5 | COc1ccc(/C=C/c2cc(OC)c(CCCCCCCCCCCCO)c(OC)c2)cc1 [MRFA-12] |  | 20 to 40% | 
6 | COc1ccc(/C=C/c2cc(OC)c(CCCCCCCCCCCCCCO)c(OC)c2)cc1 [MRFA-14, (E)-14-(4-(4-methoxystyryl)-2,6-dimethoxyphenyl)tetradecan-1-ol] |  | 20 to 40% | 
7 | OCCCCCCCCCCCCc1c(O)cc(/C=C/c2ccc(O)cc2)cc1O [RFA-12] |  | 40% | differentiation of neural stem cells, result in words ([3]; 10^-5 M): does not induce differentiation due to toxicity; increase in the neuron population compared to the control fixed at 100% ([3]; 10^-6 M): 120%; increase in the neuron population compared to the control fixed at 100% ([3]; 10^-7 M): 90%; increase in the neuron population compared to the control fixed at 100% ([3]; 10^-8 M): 80%; differentiation of neural stem cells, result in words ([3]; 10^-9 M): only weak activity; decrease in nitrite levels ([1]; compound at 5×10^-6 M): 50%; effect on neural stem cell proliferation [4]: inhibits the proliferation of neural stem cells
8 | Oc1ccc(/C=C/c2cc(O)cc(O)c2)cc1 [resveratrol] | 20% | 30% | IC50 [5]: 30 µM; IC50 [6]: 10 µM
